Data taken from article PMC314469, “Protein Interaction Networks by Proteome Peptide Scanning” (PLoS Biology, 2004).

Test system: Myo5 SH3 domain
Test: SPOT analysis of cellulose-bound peptides (WISE), Myo5 SH3 domain (Dataset S4)
Assay type: binding, Saccharomyces cerevisiae
Details: SPOT analysis of cellulose-bound 14-mer yeast proteome peptides, Myo5 SH3 domain; normalized value; mean where the peptide was synthesized more than once

| Sequence | The normalized value in BLU units [BLU] |
| --- | --- |
| GYDEKGNPIPPNNW | 96.0 |
| NEAPMLSPQRPYST | 111.3 |
| QPQHLPPPPPPRAQ | 76158.3 |
| PPKLLVYPESPETN | 91.3 |
| PFIDYEFPHLPNEL | 98.9 |
| TLDEKECPSVPPTV | 211.5 |
| KPLKFLRPTYPDLC | 149.2 |
| KLAPLNCPSLPTTN | 211.6 |
| VFGTYLGPDAPLSK | 130.5 |
| HLFHLTTPQDPRLL | 245.7 |
| EFDMLLLPFIPSID | 249.2 |
| LQYHKKNPYSPLFS | 317.8 |
| SFRELWQPVDPSRE | 97.3 |
| ENTPRPNPTQPRKP | 137.3 |
| TLFRFIVPFNPYFS | 881.8 |
| KLPDLKLPPSPVPS | 231.2 |

| Sequence | The normalized value in BLU units [BLU] |
| --- | --- |
| INVEREAPMFPVPY | 148.9 |
| EEQVKEKPNEPEGK | 134.2 |
| QLVTLISPYDPNFK | 177.5 |
| TAWDMVPPYSPLSE | 126.6 |
| HAEAFEDPSIPRIS | 324.6 |
| KLFVLLPPIDPKDG | 258.2 |
| KFRQMFKPLAPNTR | 1217.4 |
| LPQQHLSPLIPIAI | 45.3 |
| RLLALFIPALPFII | 264.8 |
| KAVHLYFPILPHCG | 125.3 |
| SPVPLGSPRGPLPV | 135.1 |
| NALKLIHPFMPFIS | 170.3 |
| MPNLKRLPIPPLQD | 306.9 |
| QPAQFMPPQDPAAA | 133.5 |
| KGVLKEYPMRPYGS | 116.8 |
| YFKELPPPSDPSSI | 164.8 |

Same assay, conditions: SPOT analysis of cellulose-bound peptides probed with Myo5 SH3 domain; normalized value

| Sequence | The normalized value in BLU units (SPOT analysis, Myo5 SH3) [BLU] |
| --- | --- |
| GWVVYPPPPKPSYN | 452.7 |
| LFKRLPVPAPPMDS | 145.1 |
| TPPPPPLPSVLSS | 25804 |
| NEDTFLPPPPPPPS | 20439.9 |
| DARPFLKPVDPIAL | 126.2 |
| LPEELMRPKVPELL | 145.4 |
| PLAPLPPPPPPSVA | 4747.6 |
| RLTNFEVPSLPTFH | 319.1 |
| SPFSLFIPTIPATT | 151.7 |
| MANILYYPQKPLGT | 152.5 |
| LLLPLLLPPLPSVK | 6465.7 |
| TAAELQAPPPPPSS | 315.2 |
| GEIMFPAPPLPIAN | 2774.8 |
| LPAPPPPPRRGPA | 43350 |
| HAWDMRSPHRPFYS | 822.1 |
| ELLCFLSPGKPSKG | 57.4 |
| KELIYKQPSGPGLV | 79.3 |
| KLEDLNEPLSPWIS | 71.1 |

Same assay, conditions: SPOT analysis of membrane-bound peptides, Myo5 SH3 domain; normalized value (see methods)

| Sequence | The normalized value in BLU units [BLU] |
| --- | --- |
| SLIPKIEPAEPTYS | 85.4 |
| NESEKSSPWSPYKV | 221.5 |
| VWGPKPVPFQPMDV | 96.9 |
| DLKKKYAPDPPITH | 185.5 |
| TNGPRYSPQNPRPF | 158.5 |
| IAKLKRKPVVPRLK | 888.5 |
| RAGNREPPSTPSTL | 273.8 |
| AKLHRTKPVKPLSK | 501.8 |
| QLQEKLSPDLPDEE | 216.1 |
| LTSFKGRPKPPKTL | 327.7 |
| PRSKKKKPAPPTLL | 412.9 |
| EWEEKLTPAGPLCP | 297.2 |
| GQQKRFSPSLPSAV | 728.5 |
| HEVPKRSPEKPSNP | 171.6 |
| AVVYKLKPYIPSLS | 112.0 |
| NSFRKILPQEPEIW | 235.4 |
| TYIWRYLPAPPVCI | 444.5 |

| Sequence | The normalized value in BLU units [BLU] |
| --- | --- |
| NPIPKSVPLHPKSG | 363.8 |
| TQMKRLKPVSPGLR | 1445.1 |
| EIAKRLQPGSPVLG | 172.5 |
| VKRPRLNPFLPRDE | 1186.3 |
| GRSLRKRPTSPSIS | 819.6 |
| EYSPRPSPWLPSKP | 73.7 |
| TQPVRKNPEAPARR | 232.1 |
| WEALKSVPIPPRKN | 379.0 |
| QSEEKEKPKGPMAV | 197.3 |
| TASGKTSPILPLQN | 290.5 |
| KKIAKGDPKIPMQN | 720.5 |
| EKYGKDQPESPVPE | 143.3 |
| KTGRKTFPFLPYQI | 466.0 |
| TSSLRKPPNGPSSV | 143.8 |
| KQKKKPTPTRPYNY | 516.2 |
| YFVKKIRPGNPLTK | 508.5 |

Same assay, conditions: SPOT analysis of membrane-synthesized peptides probed with Myo5 SH3 domain; normalized value

| Sequence | The normalized value in BLU units (SPOT analysis, Myo5 SH3) [BLU] |
| --- | --- |
| KALPKRRPSPPLQS | 1137.8 |
| TGGGRIVPGVPPGA | 118.4 |
| NDNEKKKPSSPTAA | 98.5 |
| MAFIKILPNNPWPF | 59.9 |
| TEVWRKVPMKPIFE | 242.9 |
| WRWARDTPRAPGLH | 2104.5 |
| DKIFKTDPNEPAND | 99.1 |
| ALEERFDPKSPTKR | 108.5 |
| CWHPKTIPKQPMEI | 342.9 |
| PANPKILPKIPSGA | 164.4 |
| LDLSKYGPLPPSRA | 154.0 |
| WLGNKYDPENPFND | 88.8 |
| TVRTRRRPPPPPIP | 46234.4 |
| EFDLKNIPMMPAGE | 106.1 |
| GDHPKGPPPPPPPP | 20184.2 |
| AFYYKYYPVEPNCN | 187.7 |
| YVNPRNLPSVPNGL | 179.8 |
| SVSEKTNPSSPSVS | 126.7 |
| VYRRKCIPFAPHQI | 382.9 |
| GEMVKLTPKNPFYK | 408.3 |
| RIRDKSKPSSPTAT | 546.8 |
| SFIRKRAPTPPAPS | 878.2 |
| KHEPKKSPTTPALA | 726.2 |
| DYRPKCIPCPPNGI | 154.3 |
